Source: ChEMBL document CHEMBL1158327, “Four new clerodane diterpenes from the leaves of Casearia guianensis which inhibit the interaction of leukocyte function antigen 1 with intercellular adhesion molecule 1” (J Nat Prod, 1997)
Active and inactive are the calls of the source. The rule behind the calls is not given here.

Legend:
[1] = target: Intercellular adhesion molecule (ICAM-1), Integrin alpha-L/beta-2 (Homo sapiens) (UniProt P20701+P05362+P05107); assay: (§1) Inhibition of LFA1 binding to full length soluble ICAM1 by gamma scintillation counter; assay type: protein-complex assay
[2] = target: Intercellular adhesion molecule (ICAM-1), Integrin alpha-L/beta-2 (Homo sapiens, UniProt P05107+P05362+P20701); assay: as §1; assay type: protein-complex assay
Intercellular adhesion molecule (ICAM-1), Integrin alpha-L/beta-2, sequence (P20701 whole entry): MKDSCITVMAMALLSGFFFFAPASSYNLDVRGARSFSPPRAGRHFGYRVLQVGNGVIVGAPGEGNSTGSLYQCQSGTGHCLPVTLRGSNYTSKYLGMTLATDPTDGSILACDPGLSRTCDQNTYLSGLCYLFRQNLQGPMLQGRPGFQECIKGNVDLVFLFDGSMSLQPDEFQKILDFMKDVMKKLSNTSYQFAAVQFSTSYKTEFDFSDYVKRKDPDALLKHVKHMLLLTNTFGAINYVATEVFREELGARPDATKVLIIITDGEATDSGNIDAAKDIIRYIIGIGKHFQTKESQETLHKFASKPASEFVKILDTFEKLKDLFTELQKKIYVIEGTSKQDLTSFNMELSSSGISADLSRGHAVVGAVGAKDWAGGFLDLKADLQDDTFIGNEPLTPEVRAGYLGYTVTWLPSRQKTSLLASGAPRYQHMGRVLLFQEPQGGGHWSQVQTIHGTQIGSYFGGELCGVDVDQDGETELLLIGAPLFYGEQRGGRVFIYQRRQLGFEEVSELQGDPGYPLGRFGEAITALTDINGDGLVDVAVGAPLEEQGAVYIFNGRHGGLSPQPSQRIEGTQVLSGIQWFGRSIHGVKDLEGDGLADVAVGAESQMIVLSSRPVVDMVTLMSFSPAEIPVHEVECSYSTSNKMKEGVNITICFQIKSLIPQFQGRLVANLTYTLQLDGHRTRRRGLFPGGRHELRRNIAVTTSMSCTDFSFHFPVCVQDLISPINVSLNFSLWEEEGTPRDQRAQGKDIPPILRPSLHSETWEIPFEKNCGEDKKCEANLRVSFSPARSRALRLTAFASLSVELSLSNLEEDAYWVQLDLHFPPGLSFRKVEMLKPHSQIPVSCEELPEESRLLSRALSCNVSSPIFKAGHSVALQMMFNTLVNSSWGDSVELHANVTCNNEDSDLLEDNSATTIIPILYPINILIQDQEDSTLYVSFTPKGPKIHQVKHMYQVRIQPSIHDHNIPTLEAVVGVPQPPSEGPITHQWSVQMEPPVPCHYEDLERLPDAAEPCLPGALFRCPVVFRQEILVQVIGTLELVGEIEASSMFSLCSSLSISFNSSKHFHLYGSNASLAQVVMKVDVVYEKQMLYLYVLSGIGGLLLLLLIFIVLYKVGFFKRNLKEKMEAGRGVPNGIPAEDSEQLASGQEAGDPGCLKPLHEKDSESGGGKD
Intercellular adhesion molecule (ICAM-1), Integrin alpha-L/beta-2, sequence (P05362 whole entry): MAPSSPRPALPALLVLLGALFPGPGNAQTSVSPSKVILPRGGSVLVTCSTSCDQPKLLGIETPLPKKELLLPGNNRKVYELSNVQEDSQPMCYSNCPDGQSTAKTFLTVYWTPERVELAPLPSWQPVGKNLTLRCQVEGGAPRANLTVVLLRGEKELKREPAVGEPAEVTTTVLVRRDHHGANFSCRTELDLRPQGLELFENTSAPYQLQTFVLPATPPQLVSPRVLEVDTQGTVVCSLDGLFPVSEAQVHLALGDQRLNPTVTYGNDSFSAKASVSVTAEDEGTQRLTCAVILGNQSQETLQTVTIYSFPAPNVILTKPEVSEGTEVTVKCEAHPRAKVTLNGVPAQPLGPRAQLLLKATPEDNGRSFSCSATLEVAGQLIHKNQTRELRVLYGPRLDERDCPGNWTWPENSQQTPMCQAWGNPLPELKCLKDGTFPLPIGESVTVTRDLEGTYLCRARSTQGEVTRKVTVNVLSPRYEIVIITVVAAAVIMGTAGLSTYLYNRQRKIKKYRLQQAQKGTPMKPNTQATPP
Intercellular adhesion molecule (ICAM-1), Integrin alpha-L/beta-2, sequence (P05107 whole entry): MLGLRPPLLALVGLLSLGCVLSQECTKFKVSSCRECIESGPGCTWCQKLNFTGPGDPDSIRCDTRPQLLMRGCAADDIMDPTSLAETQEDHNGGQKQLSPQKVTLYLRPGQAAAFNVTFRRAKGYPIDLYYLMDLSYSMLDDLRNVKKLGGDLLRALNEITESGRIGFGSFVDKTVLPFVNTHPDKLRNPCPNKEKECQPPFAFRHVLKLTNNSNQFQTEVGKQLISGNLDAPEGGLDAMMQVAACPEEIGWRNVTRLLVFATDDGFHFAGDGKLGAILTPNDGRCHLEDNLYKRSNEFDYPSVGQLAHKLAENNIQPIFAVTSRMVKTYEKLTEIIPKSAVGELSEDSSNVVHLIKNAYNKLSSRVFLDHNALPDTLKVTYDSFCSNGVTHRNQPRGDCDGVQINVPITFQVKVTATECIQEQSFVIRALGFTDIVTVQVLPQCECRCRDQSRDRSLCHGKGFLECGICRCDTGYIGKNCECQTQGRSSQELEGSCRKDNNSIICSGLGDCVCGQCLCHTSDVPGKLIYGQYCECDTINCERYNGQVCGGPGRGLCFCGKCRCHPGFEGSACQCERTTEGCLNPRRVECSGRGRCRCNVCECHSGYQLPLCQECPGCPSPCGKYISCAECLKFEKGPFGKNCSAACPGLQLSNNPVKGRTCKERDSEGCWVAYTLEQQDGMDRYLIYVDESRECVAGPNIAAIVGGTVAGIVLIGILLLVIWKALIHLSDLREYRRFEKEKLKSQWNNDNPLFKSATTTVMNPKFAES

**Q.** With C=C/C(C)=C\C[C@]1(C)[C@H]2C[C@@H](OC(C)=O)C[C@@H]3[C@H](OC(C)=O)O[C@H](OC(C)=O)[C@@]32C(=O)C[C@@H]1C as the molecule, how does the Activity [1] read?
**A.** Active

**Q.** For C=C/C(C)=C/C[C@]1(C)[C@H]2C[C@@H](OC(C)=O)C[C@@H]3[C@H](OC(C)=O)O[C@H](OC(C)=O)[C@@]32C(=O)C[C@@H]1C, which Activity [1] is on record?
**A.** Active

**Q.** C=C/C(C)=C/C[C@]1(C)[C@H]2C[C@@H](OC(=O)/C(C)=C/C)C[C@@H]3[C@H](OC(C)=O)OC(OC(C)=O)[C@@]32[C@H](O)C[C@@H]1C (some centres undefined) [CASEARINOL A] was tested. Which IC50 [2] did it give?
**A.** 50 µM

**Q.** For C=C/C(C)=C/C[C@]1(C)[C@H]2C[C@@H](OC(=O)C(C)CC)C[C@@H]3[C@H](OC(C)=O)OC(OC(C)=O)[C@@]32[C@H](O)C[C@@H]1C (some centres undefined), which Activity [1] is on record?
**A.** Active
